Residues, ends and D or L forms follow the SMILES beside them.
assay: Transdermal penetration through ex vivo mouse skin in a single-chamber diffusion cell, content by BCA kit; type: in vitro ADME, Kunming mice; conditions: collagen peptide 5 mg/ml in 0.9% NaCl, diffusion area 2.0 cm^2, 37.5° C.
Method: 1. Preparation of Mouse Skin Ex Vivo 10 Kunming mice of 20 to 22 g with half male and half […] were used in the experiment. After the mice were killed, the hairs on the abdomen were removed. Then the skin on the hair-removed area was peeled off, stripped of fat and tendons, and rinsed repeatedly with distilled water. After being washed, the mouse skins were rinsed with normal saline, then treated with 10% glycerol, and stored at −20° C. for use (use up within 7 days).
Single-chamber diffusion cell: The effective diffusion area of the diffusion cell is 2.0 cm^2, the volume of the receiving cell is 14 ml, the length of the custom-made stirrer is 1.4 cm, and the receiving solution is 0.9% NaCl solution.
The stored mouse skin was taken out, thawed, washed with normal saline, and sandwiched between the receiving chamber and the supplying chamber, with the medicated side facing the supplying chamber and the skin side facing the receiving chamber. The temperature of the water bath system was adjusted to 37.5° C., and the stirring speed was adjusted to 100 rpm/min. 0.9% NaCl solution pre-warmed at 37° C. was added to the receiving chamber and the air bubbles were exhausted, in order to reduce the interference, the inner surface of the mouse skin was firstly contacted with the receiving solution without medication and all the receiving solution was replaced. Then the 27 collagen peptides synthesized were prepared into 5 mg/ml solutions using 0.9% NaCl respectively, which were injected into the supplying chamber and firmly adhere to the mouse skin respectively. After 24 h, part of the receiving solution was absorbed with a syringe as the sample solution to determine the transdermal amount of collagen peptide.
The BCA kit method was used to determine the polypeptide content in the sample solution. […]

SMILES	24h penetration amount [µg]
CC(C)C[C@H](NC(=O)[C@H](CC(=O)O)NC(=O)CNC(=O)[C@@H]1CCCN1C(=O)[C@@H](NC(=O)CN)C(C)C)C(=O)NCC(=O)N[C@@H](C)C(=O)N1CCC[C@H]1C(=O)NCC(=O)N1CCC[C@H]1C(=O)N[C@@H](CO)C(=O)NCC(=O)N[C@@H](C)C(=O)N[C@@H](CCCNC(=N)N)C(=O)NCC(=O)N[C@@H](CCC(=O)O)C(=O)N[C@@H](CCCNC(=N)N)C(=O)NCC(=O)N[C@@H](Cc1ccccc1)C(=O)N1CCC[C@H]1C(=O)NCC(=O)N[C@@H](CCC(=O)O)C(=O)N[C@@H](CCCNC(=N)N)C(=O)NCC(=O)N[C@H](C(=O)N[C@@H](CCC(N)=O)C(=O)NCC(=O)N1CCC[C@H]1C(=O)N1CCC[C@H]1C(=O)NCC(=O)N1CCC[C@H]1C(=O)N[C@@H](C)C(=O)NCC(=O)N1CCC[C@H]1C(=O)N[C@@H](CCCNC(=N)N)C(=O)O)C(C)C [compound 14] (H-GVPGDLGAPGPSGARGERGFPGERGVQGPPGPAGPR-OH; N-terminus and C-terminus assumed)	2045.62
CC(C)[C@H](NC(=O)[C@H](C)NC(=O)CNC(=O)[C@@H]1CCCN1C(=O)[C@@H]1CCCN1C(=O)CNC(=O)[C@@H]1CCCN1C(=O)[C@@H](NC(=O)CNC(=O)[C@H](CCCNC(=N)N)NC(=O)[C@H](CCC(=O)O)NC(=O)CNC(=O)[C@H](C)NC(=O)[C@H](CCCCN)NC(=O)CNC(=O)[C@@H]1CCCN1C(=O)[C@H](CCC(=O)O)NC(=O)CNC(=O)[C@H](C)NC(=O)[C@H](C)NC(=O)CNC(=O)[C@H](CCCCN)NC(=O)[C@@H]1CCCN1C(=O)CNC(=O)[C@@H]1CCCN1C(=O)[C@H](Cc1ccccc1)NC(=O)CN)C(C)C)C(=O)NCC(=O)N1CCC[C@H]1C(=O)N[C@@H](C)C(=O)NCC(=O)N[C@@H](CCCCN)C(=O)N[C@@H](CC(=O)O)C(=O)NCC(=O)N[C@@H](CCC(=O)O)C(=O)N[C@@H](C)C(=O)O [compound 11] (H-GFPGPKGAAGEPGKAGERGVPGPPGAVGPAGKDGEA-OH; N-terminus and C-terminus assumed)	2576.34
CC(C)[C@H](NC(=O)[C@H](C)NC(=O)CNC(=O)[C@@H]1CCCN1C(=O)[C@@H]1CCCN1C(=O)CNC(=O)[C@@H]1CCCN1C(=O)[C@@H](NC(=O)CNC(=O)[C@H](CCCNC(=N)N)NC(=O)[C@H](CCC(=O)O)NC(=O)CN)C(C)C)C(=O)NCC(=O)N1CCC[C@H]1C(=O)N[C@@H](C)C(=O)NCC(=O)N[C@@H](CCCCN)C(=O)N[C@@H](CC(=O)O)C(=O)NCC(=O)N[C@@H](CCC(=O)O)C(=O)N[C@@H](C)C(=O)NCC(=O)N[C@@H](C)C(=O)N[C@@H](CCC(N)=O)C(=O)NCC(=O)N1CCC[C@H]1C(=O)N1CCC[C@H]1C(=O)NCC(=O)N1CCC[C@H]1C(=O)N[C@@H](C)C(=O)NCC(=O)N1CCC[C@H]1C(=O)N[C@@H](C)C(=O)NCC(=O)N[C@@H](CCC(=O)O)C(=O)N[C@@H](CCCNC(=N)N)C(=O)O [compound 12] (H-GERGVPGPPGAVGPAGKDGEAGAQGPPGPAGPAGER-OH; N-terminus and C-terminus assumed)	2613.34
CC(C)C[C@H](NC(=O)[C@H](CC(=O)O)NC(=O)CNC(=O)[C@@H]1CCCN1C(=O)[C@@H](NC(=O)CNC(=O)[C@H](CCC(N)=O)NC(=O)[C@H](CCC(=O)O)NC(=O)CNC(=O)[C@@H]1CCCN1C(=O)[C@H](CCCCN)NC(=O)CNC(=O)[C@H](C)NC(=O)[C@H](CCC(=O)O)NC(=O)CNC(=O)[C@@H]1CCCN1C(=O)[C@@H]1CCCN1C(=O)CNC(=O)[C@H](C)NC(=O)[C@@H]1CCCN1C(=O)CNC(=O)[C@@H]1CCCN1C(=O)[C@H](CC(C)C)NC(=O)CN)C(C)C)C(=O)NCC(=O)N[C@@H](C)C(=O)N1CCC[C@H]1C(=O)NCC(=O)N1CCC[C@H]1C(=O)N[C@@H](CO)C(=O)NCC(=O)N[C@@H](C)C(=O)N[C@@H](CCCNC(=N)N)C(=O)NCC(=O)N[C@@H](CCC(=O)O)C(=O)N[C@@H](CCCNC(=N)N)C(=O)O [compound 13] (H-GLPGPAGPPGEAGKPGEQGVPGDLGAPGPSGARGER-OH; N-terminus and C-terminus assumed)	2098.04
CC(C)[C@H](NC(=O)CNC(=O)[C@H](CCCNC(=N)N)NC(=O)[C@H](CCC(=O)O)NC(=O)CNC(=O)[C@@H]1CCCN1C(=O)[C@H](Cc1ccccc1)NC(=O)CNC(=O)[C@H](CCCNC(=N)N)NC(=O)[C@H](CCC(=O)O)NC(=O)CNC(=O)[C@H](CCCNC(=N)N)NC(=O)[C@H](C)NC(=O)CNC(=O)[C@H](CO)NC(=O)[C@@H]1CCCN1C(=O)CNC(=O)[C@@H]1CCCN1C(=O)[C@H](C)NC(=O)CN)C(=O)N[C@@H](CCC(N)=O)C(=O)NCC(=O)N1CCC[C@H]1C(=O)N1CCC[C@H]1C(=O)NCC(=O)N1CCC[C@H]1C(=O)N[C@@H](C)C(=O)NCC(=O)N1CCC[C@H]1C(=O)N[C@@H](CCCNC(=N)N)C(=O)NCC(=O)N[C@@H](C)C(=O)N[C@@H](CC(N)=O)C(=O)NCC(=O)N[C@@H](C)C(=O)N1CCC[C@H]1C(=O)O [compound 26] (H-GAPGPSGARGERGFPGERGVQGPPGPAGPRGANGAP-OH; N-terminus and C-terminus assumed)	2054.99
CC(C)C[C@H](NC(=O)CNC(=O)[C@@H](NC(=O)[C@@H]1CCCN1C(=O)CNC(=O)[C@@H]1CCCN1C(=O)[C@H](CCC(=O)O)NC(=O)CNC(=O)[C@H](CCCNC(=N)N)NC(=O)[C@H](C)NC(=O)CNC(=O)[C@H](CCCNC(=N)N)NC(=O)[C@H](CCCCN)NC(=O)CNC(=O)[C@H](CCC(=O)O)NC(=O)[C@H](CCC(=O)O)NC(=O)CNC(=O)[C@H](C)NC(=O)[C@@H]1CCCN1C(=O)CNC(=O)[C@@H]1CCCN1C(=O)[C@@H]1CCCN1C(=O)CNC(=O)[C@H](CCC(N)=O)NC(=O)[C@@H](NC(=O)CNC(=O)[C@@H](NC(=O)[C@@H]1CCCN1C(=O)CN)C(C)C)C(C)C)[C@@H](C)O)C(=O)N1CCC[C@H]1C(=O)NCC(=O)N1CCC[C@H]1C(=O)N1CCC[C@H]1C(=O)NCC(=O)N[C@@H](CCC(=O)O)C(=O)N[C@@H](CCCNC(=N)N)C(=O)O [compound 7] (H-GPVGVQGPPGPAGEEGKRGARGEPGPTGLPGPPGER-OH; N-terminus and C-terminus assumed)	2189.90
CC(C)[C@H](NC(=O)CNC(=O)[C@H](CCCNC(=N)N)NC(=O)[C@H](CCC(=O)O)NC(=O)CN)C(=O)N[C@@H](CCC(N)=O)C(=O)NCC(=O)N1CCC[C@H]1C(=O)N1CCC[C@H]1C(=O)NCC(=O)N1CCC[C@H]1C(=O)N[C@@H](C)C(=O)NCC(=O)N1CCC[C@H]1C(=O)N[C@@H](CCCNC(=N)N)C(=O)NCC(=O)N[C@@H](C)C(=O)N[C@@H](CC(N)=O)C(=O)NCC(=O)N[C@@H](C)C(=O)N1CCC[C@H]1C(=O)NCC(=O)N[C@@H](CC(N)=O)C(=O)N[C@@H](CC(=O)O)C(=O)NCC(=O)N[C@@H](C)C(=O)N[C@@H](CCCCN)C(=O)NCC(=O)N[C@@H](CC(=O)O)C(=O)N[C@@H](C)C(=O)NCC(=O)N[C@@H](C)C(=O)N1CCC[C@H]1C(=O)NCC(=O)N[C@@H](C)C(=O)N1CCC[C@H]1C(=O)O [compound 15] (H-GERGVQGPPGPAGPRGANGAPGNDGAKGDAGAPGAP-OH; N-terminus and C-terminus assumed)	2111.23

— patent US20250152675A1, “I-TYPE RECOMBINANT COLLAGEN WITH HIGH TRANSDERMAL ABSORBABILITY, AND USE THEREOF” (XI'AN GIANT BIOGENE TECHNOLOLGY CO., LTD, priority 2022, published 2025)
